Assay results taken from US20250082781A1, “METHODS OF LOWERING BLOOD GLUCOSE AND TREATING TYPE 2 DIABETES BY ACTIVATION OF PDE4D3” (Salk Institute for Biological Studies, priority 2021, published 2025).

What was measured:
[1] = system: perilipin-HSL co-localization; test: Perilipin-GFP and HSL-mCherry co-localization in 3T3-L1 adipocytes; format: cell-based
Description: 3T3-L1 cells were transduced with viral particles ([…]) in 24 well plates. Media was replaced after overnight incubation. 3-4 days after AAV infection, cells were treated as described for lipolysis assay. For cAMP analysis by biosensors, Downward Green cADDis cAMP Sensor (D0200G) and control mNeon Green (F0500G) produced in BacMam system was purchased from Montana Molecular. Brightfield and fluorescence images were taken every 10-20 min in I IncuCyte® Live-cell analysis system (Sartorius) and images were analyzed by IncuCyte® Analysis Software. High-resolution live cell imaging was performed with LSM 880 Airyscan microscope at 40× objective.

[2] = system: hepatic glucose production; test: Pyruvate tolerance and glycerol tolerance tests; format: in vivo, mouse
Description: Pyruvate tolerance and glycerol tolerance tests were performed in ob ob and DIO mice after overnight fasting at 1.5 g kg^−1 dose using sodium pyruvate (0.2 g/ml) or 20% glycerol solution in PBS. Insulin tolerance test and glucose tolerance test were performed in ob ob mice after 8 h fasting. 2 U kg^−1 insulin (Humulin R) and 0.5 g kg^−1 glucose were used respectively. Blood glucose from tail bleeding was monitored by a OneTouch glucometer.

[3] = system: oleic acid turnover; test: 3H-labeled oleic acid turnover (in vivo lipolysis); set-up: species or system mouse
Description: FIGS. 1A-1I: FGF1 suppresses adipose lipolysis. (FIG. 1A) Ex-vivo lipolysis in gonadal white adipose tissue (gWAT) explants from wildtype (F1WT) and FGF1 KO (FIKO) mice 6 h after refeeding. Data are represented as mean±SEM (n=4, *p<0.05). (FIG. 1B) Lipolysis in mouse SVF-derived adipocytes measured by the cumulative release of free fatty acids (FFAs) into the media over 4 h. Cells were pretreated with vehicle (PBS) or FGF1 (100 ng/ml) for 10 min prior to the induction of lipolysis with 1 nM isoproterenol (ISO). Data are represented as mean±SEM (n=3, *p<0.05, **p<0.01). (FIG. 1C) Dose response of FGF1-induced suppression of lipolysis in 3T3-L1 adipocytes. Cells were pretreated with the indicated doses of FGF1 for 10 min prior to the induction of lipolysis with 100 nM isoproterenol (ISO), and the cumulative release of FFAs over 4 h was measured. Data are represented as mean±SEM (n=3, **p<0.01, ***p<0.001). […] Plasma radioactivity was measured by scintillation counting and normalized to t=1 min. Fractional oleic acid turnover rate was calculated by linear regression of natural log transformed data (adR1WT vehicle n=5, FGF1 n=4; adR1KO vehicle n=4, FGF1 n=5). […] Quantification of pHSL-S660 normalized to total HSL is shown in the right panel. […] Quantification of pHSL-S660 normalized to total HSL (right panel). […]

[4] = system: blood glucose levels; test: Blood glucose levels in DIO mice; format: in vivo, mouse; conditions: for blood glucose levels: 0.5 mg/kg FGF1 s.c.
Description: Mice were kept in 12 h light/dark cycle in a temperature-controlled environment. Mice had free access to food and water unless noted otherwise. C57/B6 mice background was used unless noted otherwise. C57BL/6J and ob/ob (000632-B6. Cg-Lepob/J) male mice were obtained from Jackson Laboratory. PDE4D knock-out mice (034588-UCD) were obtained from MMRRC. For diet-induced obesity (DIO) studies, mice were fed a high fat diet (HFD) (60% fat, F3282; Bio-Serv) for minimum of 12 weeks to induce insulin resistance when diet-induced obese model is used. Insulin levels and blood glucose levels were monitored to confirm insulin resistance. To generate adipose-specific FGFR1 deletion, adiponectin-cre mice (B6; FVB-Tg (Adipoq-cre)1Evdr/J; Stock: 010803) were crossed to Fgfr1 flox/flox (B6.129S4-Fgfr1tm5.1Sor/J; Stock: 00767) mice. For AAV mediated expression of target proteins in adipose tissue, 5×10E+11 genomic copies of AAV were injected via tail vein or retro-orbital route.
Recombinant FGF1 (rFGF1) was dissolved in phosphate-buffered saline (PBS) at a concentration of 0.2 mg/ml and was injected subcutaneously at a 0.5 mg kg^−1 dose. Blood glucose was monitored at indicated time points after injection. For initial measurements (2-4 h) food was removed after injection to exclude any indirect effects stemming from anorexigenic effects of FGF1. PDE4 inhibitor roflumilast stock in DMSO was diluted at 1 mg/ml in 30% captisol, pH 10 and delivered to mice thorough oral gavage at 5 mg kg^−1 dose. PDE3 inhibitor cilostamide stock in DMSO was diluted at 2 mg/ml in 30% captisol and delivered through intraperitoneal injection at 10 mg kg^−1 dose.

[5] = overnight fasted ob/ob mice, 2 h after FGF1 0.5 mg/kg

Substance: FGF1: Recombinant fibroblast growth factor 1 protein, dissolved in PBS, injected subcutaneously
- isoproterenol-induced co-localization of perilipin-GFP and HSL-mCherry ([1]; FGF1 100 ng/ml pretreatment, ISO 100 nM): reduced the isoproterenol-induced co-localization of perilipin-GFP and HSL-mCherry
- FGF1 effect on perilipin-HSL co-localization under PDE4 inhibition ([1]; roflumilast 2 μM, PDE3 inhibition did not abrogate): abrogated the FGF1 effect
- pyruvate and glycerol tolerance tests ([2]; DIO mice, 2 h after FGF1 0.5 mg/kg): replicated in DIO mice
- suppression of pyruvate utilization ([2]; adR1WT vs adR1KO DIO mice): dependent on adipocyte FGFR1 expression
- glycerol tolerance test [2, 5]: no differences
- pyruvate tolerance test (glucose synthesis from pyruvate) [2, 5]: markedly reduced ability to synthesize glucose from pyruvate
- oleic acid turnover ([3]; adR1KO mice, FGF1 pretreatment): not affected
- fractional turnover rate of oleic acid ([3]; adR1WT mice, FGF1 0.5 mg/kg s.c. 6 h before infusion): reduced
- blood glucose levels ([4]; DIO adR1KO mice): failed to affect adR1KO mice
- ability of FGF1 to modulate glucose levels under inhibition of PDE3 ([4]; DIO mice, FGF1 0.5 mg/kg, cilostamide 10 mg/kg): failed to affect the ability of FGF1 to modulate glucose levels
- blood glucose levels ([4]; DIO wild type mice (adR1WT)): rapidly decreased blood glucose levels
- blood glucose ([4]; HFD-fed PDE4D KO mice, FGF1 0.5 mg/kg): failed to lower blood glucose
- FGF1 blood glucose lowering with adAAV-driven expression of PDE4D3 in adipose tissue ([4]; PDE4D KO DIO mice 4 weeks after adAAV, FGF1 0.5 mg/kg): restored
- ability of FGF1 to reduce blood glucose levels with roflumilast pretreatment ([4]; ad lib fed DIO mice, FGF1 0.5 mg/kg, roflumilast 5 mg/kg): lost
